Results reported in US7820630B2, “Substituted indole-O-glucosides” (Janssen Pharmaceutica NV, priority 2003, dated 2010).

Columns and labels:
human SGLT1 = molecular target: T1, human SGLT1 (Homo sapiens, UniProt P13866); assay: Cell-based assay for sodium-dependent glucose transport (14C-AMG uptake), CHOK-SGLT1; conditions: CHO-K1 cells stably expressing human SGLT1; for inhibition at 10 µM: 10 μM compound, read-out: CHOK-SGLT1 % Inh. @ 10 μM; for IC50: Na-dependent 14C-AMG uptake
T1 construct: expressed in transfected cells
T1 sequence (P13866 1-664): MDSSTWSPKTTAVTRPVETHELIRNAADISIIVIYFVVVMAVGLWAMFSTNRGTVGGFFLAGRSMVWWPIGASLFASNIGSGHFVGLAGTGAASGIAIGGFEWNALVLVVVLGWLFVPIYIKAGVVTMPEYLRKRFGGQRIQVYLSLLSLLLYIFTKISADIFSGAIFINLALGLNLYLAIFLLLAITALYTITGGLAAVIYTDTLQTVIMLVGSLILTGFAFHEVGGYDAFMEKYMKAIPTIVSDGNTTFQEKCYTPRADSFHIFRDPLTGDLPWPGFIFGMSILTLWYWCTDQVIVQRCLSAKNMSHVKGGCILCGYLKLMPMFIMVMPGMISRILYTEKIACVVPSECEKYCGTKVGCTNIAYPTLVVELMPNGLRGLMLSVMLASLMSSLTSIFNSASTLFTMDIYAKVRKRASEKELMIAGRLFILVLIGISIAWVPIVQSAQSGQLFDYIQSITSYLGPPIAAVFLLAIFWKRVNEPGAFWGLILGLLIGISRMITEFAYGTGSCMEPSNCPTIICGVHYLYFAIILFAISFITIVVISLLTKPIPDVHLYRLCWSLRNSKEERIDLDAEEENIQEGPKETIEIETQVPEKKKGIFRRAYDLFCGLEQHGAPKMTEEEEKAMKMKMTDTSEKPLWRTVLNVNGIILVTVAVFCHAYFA
Procedure: (§1) Cloning of the human SGLT1 and human SGLT2 cDNAs and construction of the mammalian expression vector: The human SGLT1 cDNA (Genbank M24847) was cloned from human small intestine. Human SGLT2 cDNA (Genbank M95549) was cloned from human kidney. Both full cDNAs were subcloned into pcDNA and sequenced to verify the integrity of the construct.
(§2) Generation of CHO-K1 cells stably expressing human SGLT1 or human SGLT2: Transfection of CHO-K1 cells was performed using DMRIE-C reagent (Life Technologies, Gaithersburg, Md.). Transfectants were then selected in the presence of the antibiotic G418 (Gibco-BRL, Grand Island, N.Y.) at 400 μg/ml. Individual clones were then characterized using the functional assay described below.
(§3) Cell-based assay for sodium-dependent glucose transport: Cell lines stably expressing human SGLT1 or SGLT2 were then used for functional analysis of Na+-dependent glucose uptake. Briefly, cells were plated at a density of 65,000 cells per well in a 96-well plate and allowed to grow for 48 hours. Cells were subsequently washed one time with Assay Buffer (50 mM HEPES pH […], 5 mM KCl, 1 mM MgCl2, 1 mM CaCl2 and 137 mM NaCl) and treated with compound in the absence or presence of NaCl for 15 minutes. Cells were then labeled with ^14C-α-methylglucopyranoside (AMG, Sigma, St. Louis, Mo.), a non-metabolizable glucose analog specific for sodium-dependent glucose transporters as previously described (Peng, H. and Lever J. E. Post-transcriptional regulation of Na^+/glucose cotransporter (SGLT1) gene expression in LLC-PK1 cells. J Biol Chem 1995; 270:20536-20542.). After 2 hours the labeled cells were washed three times with ice-cold PBS. After aspiration, cells were solubilized using Microscint 20 (Packard, Meriden, Conn.) and Na-dependent ^14C-AMG uptake was quantified by measuring radioactivity. Plates were counted in a TopCount (Packard, Meriden, Conn.). Results are reported as the % inhibition or IC50 value from a representative experiment. Variability for the functional assay was typically within 20%.

human SGLT2 = molecular target: T2, human SGLT2 (Homo sapiens, UniProt P31639); assay: Cell-based assay for sodium-dependent glucose transport (14C-AMG uptake), CHOK-SGLT2; conditions: CHO-K1 cells stably expressing human SGLT2; for IC50: Na-dependent 14C-AMG uptake; for inhibition at 10 µM: 10 μM compound, read-out: CHOK-SGLT2 % Inh. @ 10 μM
T2 construct: expressed in transfected cells
T2 sequence (P31639 1-672): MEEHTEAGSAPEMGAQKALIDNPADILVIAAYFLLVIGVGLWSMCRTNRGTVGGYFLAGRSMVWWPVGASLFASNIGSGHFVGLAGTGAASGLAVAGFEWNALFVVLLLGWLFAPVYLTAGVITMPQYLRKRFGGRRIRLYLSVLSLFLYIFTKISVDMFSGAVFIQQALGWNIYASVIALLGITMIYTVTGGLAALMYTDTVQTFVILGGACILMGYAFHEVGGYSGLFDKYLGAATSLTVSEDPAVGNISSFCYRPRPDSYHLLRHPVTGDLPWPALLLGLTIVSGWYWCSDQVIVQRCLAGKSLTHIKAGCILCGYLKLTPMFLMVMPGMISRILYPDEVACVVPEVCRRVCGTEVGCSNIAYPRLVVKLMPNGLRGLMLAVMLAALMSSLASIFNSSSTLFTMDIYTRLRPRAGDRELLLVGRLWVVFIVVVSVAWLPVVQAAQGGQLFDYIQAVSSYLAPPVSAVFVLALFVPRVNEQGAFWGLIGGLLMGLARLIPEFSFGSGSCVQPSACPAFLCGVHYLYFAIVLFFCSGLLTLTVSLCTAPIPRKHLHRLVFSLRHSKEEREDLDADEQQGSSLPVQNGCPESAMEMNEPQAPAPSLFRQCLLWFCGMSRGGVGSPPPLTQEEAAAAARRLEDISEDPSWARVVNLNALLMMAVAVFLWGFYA
Procedure: as §1, §2, §3

Row | inhibition at 10 µM (human SGLT1) [%] | IC50 (human SGLT2) [nM] | IC50 (human SGLT1) [nM] | inhibition at 10 µM (human SGLT2) [%] | Structure (SMILES)
1 | 43 | 1430 |  |  | CCN(CC)C(=O)n1cc(Cc2ccc(OC)cc2)c2c(O[C@@H]3O[C@H](CO)[C@@H](O)[C@H](O)[C@H]3O)cccc21 [Example 21, 2-[1-Diethylcarbamoyl-3-(4-methoxy-benzyl)-1H-indol-4-yloxy]-β-D-glucopyranoside]
2 |  | 118 | 1120 |  | COc1ccc(Cc2c[nH]c3cccc(O[C@@H]4O[C@H](CO)[C@@H](O)[C@H](O)[C@H]4O)c23)cc1 [Example 22, 2-[3-(4-Methoxy-benzyl)-1H-indol-4-yloxy]-β-D-glucopyranoside]
3 | 69 | 1220 |  |  | COc1ccc(Cc2cn(C)c3cccc(O[C@@H]4O[C@H](CO)[C@@H](O)[C@H](O)[C@H]4O)c23)cc1 [Example 23, 2-[3-(4-Methoxy-benzyl)-1-methyl-1H-indol-4-yloxy]-β-D-glucopyranoside]
4 | 49 | 100 |  |  | CCOc1ccc(Cc2c[nH]c3cccc(O[C@@H]4O[C@H](CO)[C@@H](O)[C@H](O)[C@H]4O)c23)cc1 [Example 25, 2-[3-(4-Ethoxy-benzyl)-1H-indol-4-yloxy]-β-D-glucopyranoside]
5 | 58 | 346 |  |  | OC[C@H]1O[C@@H](Oc2cccc3[nH]cc(Cc4ccc(Cl)cc4)c23)[C@H](O)[C@@H](O)[C@@H]1O [Example 28, 2-[3-(4-Chloro-benzyl)-1H-indol-4-yloxy]-β-D-glucopyranoside]
6 | 7 |  |  | 22 | CCc1ccc(C(=O)c2c[nH]c3cccc(O[C@@H]4O[C@H](CO)[C@@H](O)[C@H](O)[C@H]4O)c23)cc1 [Example 38, 2-[3-(4-Ethylbenzoyl)-1H-indol-4-yloxy]-β-D-glucopyranoside]

Further lines, the molecule ahead of its results:

Row | Structure (SMILES) | inhibition at 10 µM (human SGLT1) [%] | IC50 (human SGLT2) [nM] | IC50 (human SGLT1) [nM] | inhibition at 10 µM (human SGLT2) [%]
7 | OC[C@H]1O[C@@H](Oc2cccc3[nH]cc(Cc4ccc(-c5ccccc5)c(F)c4)c23)[C@H](O)[C@@H](O)[C@@H]1O [Example 20, 2-[3-(2-Fluoro-biphenyl-4-ylmethyl)-1H-indol-4-yloxy]-β-D-glucopyranoside] | 35 | 114 |  | 
8 | COc1ccc(Cc2c[nH]c3cccc(O[C@@H]4O[C@H](CO)[C@@H](O)[C@H](O)[C@H]4O)c23)cc1F [Example 24, 2-[3-(3-Fluoro-4-methoxy-benzyl)-1H-indol-4-yloxy]-D-glucopyranoside] | 79 | 202 |  | 
9 | CSc1ccc(Cc2c[nH]c3cccc(O[C@@H]4O[C@H](CO)[C@@H](O)[C@H](O)[C@H]4O)c23)cc1 [Example 27, 2-[3-(4-Methylsulfanyl-benzyl)-1H-indol-4-yloxy]-β-D-glucopyranoside] |  | 26 | 1310 | 
10 | OC[C@H]1O[C@@H](Oc2cccc3[nH]cc(Cc4ccc5ccccc5c4)c23)[C@H](O)[C@@H](O)[C@@H]1O [Example 29, 2-(3-Naphthalen-2-ylmethyl-1H-indol-4-yloxy)-β-D-glucopyranoside] | 68 | 260 |  | 
11 | OC[C@H]1O[C@@H](Oc2cccc3[nH]cc(Cc4ccc5c(c4)CCO5)c23)[C@H](O)[C@@H](O)[C@@H]1O [Example 30, 2-[3-(2,3-Dihydro-benzofuran-5-ylmethyl)-1H-indol-4-yloxy]-β-D-glucopyranoside] | 30 | 1870 |  | 
12 | CCc1ccc(Cc2c[nH]c3cc(C)cc(O[C@@H]4O[C@H](CO)[C@@H](O)[C@H](O)[C@H]4O)c23)cc1 [Example 32, 2-[3-(4-Ethyl-benzyl)-6-methyl-1H-indol-4-yloxy]-β-D-glucopyranoside] | 30 | 117 |  | 
13 | Cc1ccsc1Cc1c[nH]c2cccc(O[C@@H]3O[C@H](CO)[C@@H](O)[C@H](O)[C@H]3O)c12 [Example 34] | 27 | 5040 |  | 
14 | OC[C@H]1O[C@@H](Oc2cccc3[nH]cc(Cc4ccc(-c5cccnc5)cc4)c23)[C@H](O)[C@@H](O)[C@@H]1O [Example 35, 2-[3-(4-Pyridin-3-yl-benzyl)-1H-indol-4-yloxy]-β-D-glucopyranoside] |  | 133 | 1120 | 
15 | CCc1ccc(Cc2c(C)[nH]c3cccc(O[C@@H]4O[C@H](CO)[C@@H](O)[C@H](O)[C@H]4O)c23)cc1 [Example 36, 2-[3-(4-Ethyl-benzyl)-2-methyl-1H-indol-4-yloxy]-β-D-glucopyranoside] | 16 |  |  | 52
16 | OC[C@H]1O[C@@H](Oc2cccc3[nH]cc(Cc4ccc(-c5ccsc5)cc4)c23)[C@H](O)[C@@H](O)[C@@H]1O [Example 37, 2-[3-(4-Thiophen-3-yl-benzyl)-1H-indol-4-yloxy]-β-D-glucopyranoside] |  | 34 | 1890 | 
